Measurements: patent publication US20140221301A1, “COMBINATION TREATMENT FOR CANCER” (priority 2011, published 2014)

Assays:
Complexes I and IV = assay: Respiratory chain enzyme activity relative to citrate synthase, Complexes I and IV; type: cell-based, human; details: TEX cells, 2.5 μM and 5 μM, 72 hours
Procedure: FIG. 4. Tigecycline decreases mitochondrial Cox-1 protein levels in TEX cells. (A) Cells from TEX, OCI-AML2 and two primary AML patients were treated with increasing concentrations (2.5 μM and 5 μM) of tigecycline for 36 and 48 hours of tigecycline. Total proteins were extracted and analyzed by western blotting for Cox-1, Cox-2, Cox-4, grp78, XIAP, actin and tubulin. (B) TEX and AML patient cells were treated with increasing concentrations (2.5 μM and 5 μM) of tigecycline. Cox-1, Cox-2, and Cox-4 mRNA expression relative 18S was determined by quantitative RT-PCR. Data is shown as mean±SD. (C) TEX cells were treated with increasing concentrations of tigecycline and chloramphenicol (CAP) for 72 hours. Complex I, II and IV enzyme activity relative to citrate synthase activity was determined as described in materials and methods. […] Mitochondrial membrane potential (ΔΨ) was determined by staining cells with JC-1 dye, and flow cytometry analysis (Red/Green ratio). Reactive oxygen species generation (ROS) was determined by staining with h2-DCFDA and Dihydroethidium (DHE).
The effect of tigecycline treatment on enzyme activity of the respiratory chain complexes relative to the mitochondrial non-respiratory chain enzyme citrate synthase was examined. TEX leukemia cells were treated with tigecycline for […] and then respiratory chain enzyme relative to citrate synthase activity was analyzed. […]

[1] = tested on: primary AML patient samples; assay: Methylcellulose colony formation assay, primary AML cells; type: cell-based, human; details: 5 μM, primary AML patient samples n=7, 7 days
Procedure: FIG. 2. Tigecycline induces cell death and inhibits clonogenic growth in primary AML cells preferential over normal hematopoietic cells. Mononuclear cells from peripheral blood of leukemia patients (blast count>80%) and normal G-CSF expanded donors was treated with increasing concentrations of tigecycline for 48 hours. Cell viability was measured by Annexin-PI flow cytometry staining. Cell viability is expressed as a mean percentage plus or minus SD (n=3) relative to DMSO-treated cells. Mononuclear cells from primary AML patient samples (A, B) and normal peripheral blood cells (C) were plated in methylcelluose with 5 μM of Tigecycline. (D) Colony forming units were counted at 7 days (AML) and 14 days (Normal) post plating. […]
To assess clonogenic growth, primary AML cells (1.0×10^5/mL) or granulocyte colony-stimulating factor (G-CSF) mobilized PBSCs (1.0×10^5/mL) were plated in duplicate with increasing concentrations of tigecycline in MethoCult GF H4434 medium (StemCell Technologies, Vancouver, BC) containing 1% methycellulose in IMDM, 30% FCS, 1% bovine serum albumin, 3 U/mL of recombinant human erythropoietin, 10^−4 M of 2-mercaptoethanol, 2 mM of L-glutamine, 50 ng/mL of recombinant human stem cell factor, 10 ng/mL of GM-CSF, and 10 ng/mL of rh IL-3). Seven days (AML samples) or 14 days (normal PBCS) after plating, the number of colonies was counted as previously described^31.

primary human AML cells = type: in vivo, NOD-SCID mice
Procedure: FIG. 3. Tigecycline has anti-leukemia activity in vivo. (A, B) Human leukemia cells (OCI-AML2) were injected subcutaneously into the flank of SCID mice. Seven days after injection, once tumors were palpable, mice were treated with tigecycline (50 mg/kg or 100 mg/kg twice daily by i.p. injection) or vehicle control (n=10 per group). Fourteen days after injection of cells, mice were sacrificed, tumors excised and the volume and mass of the tumors were measured. The tumor mass and the mean volume+SD are shown. Differences in tumor volume and mass were analyzed by an unpaired t-test: *p<0.001. (C) Tumours from two control mice, and three tigecycline-treated mice were excised after 5 days of treatment and total proteins were extracted and analyzed by western blotting for Cox-1, Cox-2, Cox-4, and tubulin. […] Following treatment, human leukemia cell engraftment in the injected right femur was measured by FACS analysis for human CD45^+CD19^−CD33^+ cells. […] Six weeks later, human leukemia cell engraftment in the injected right femur was measured by FACS analysis for human CD45^+CD19^−CD33^+cells. […]
To assess tigecycline in mouse models of primary AML, primary human AML cells were isolated form a fresh peripheral blood sample from a patient with AML. A frozen aliquot was thawed, counted and resuspended in PBS. […]

For `CN(C)c1cc(NC(=O)CNC(C)(C)C)c(O)c2c1C[C@H]1C[C@H]3[C@H](N(C)C)C(O)=C(C(N)=O)C(=O)[C@@]3(O)C(O)=C1C2=O` [tigecycline], the “enzyme activities of Complexes I and IV relative to citrate synthase” value (Complexes I and IV) was “decreased”, the “reduction of clonogenic growth” value [1] was 93±4% and the “engraftment of human AML primary cells (CD45+CD33+CD19-)” value (primary human AML cells; 100 mg/kg i.p. daily for three weeks) was “significantly decreased”. For the same compound, the “toxicity in treated mice” value (primary human AML cells; mouse, in vivo) was “without gross organ toxicity or loss of body weight”.
